Laboratory results published in article PMC9085577, “Discovery of a Potent and Orally Active Dual GPBAR1/CysLT1R Modulator for the Treatment of Metabolic Fatty Liver Disease” (Frontiers in Pharmacology, 2022).

How the values were obtained:
[1] = In vivo stability: amount of compound 2 in plasma of mice; conditions: 30 mg/kg
Protocol: The amount of compound 2 in plasma samples of animals treated with compound 2 was evaluated measuring the peak area of the compound at 1, 6, and 24 h after administration. 50 μL of plasma samples were mixed with 200 μL of acetonitrile, vortexed and incubated for 1 h on ice. Samples were then centrifuged for 10 min at 10,000 rpm and supernatants were evaporated to dryness. For LC/MS-MS analysis a QTRAP 6500 System (AB Sciex) equipped with Shimadzu LC-20A LC and AutoSampler was employed. […] The transition 356 →143 was employed for quantification. The following parameters were set: positive mode, DP 120 eV, EP 12 eV, CE 40 eV, CXP 23 V, CUR 30 psi, CAD Medium, IS 5500 V, TEM 350°C, GS1 and GS2 50 psi.
Given the promising results obtained during in vitro pharmacokinetics studies, the profile of disappearance of compound 2 was also evaluated in vivo. Mice were treated with compound 2 and plasma samples withdrawn 1, 6, and 24 h after administration were analyzed by LC-MSMS to evaluate the concentration of compound 2.

[2] = test system: eWAT and colon mRNA expression; experiment: Quantitative real-time PCR of eWAT and colon of HFD-F mice; type: in vivo; conditions: 30 mg/kg/day by gavage
Excerpt: C57BL/6J male mice were fed a high fat diet (HFD) containing 59 KJ% fat plus 1% cholesterol, w/o sugar (ssniff ® EF R/M acc. D12330 mod. 22,7 ME/kg) and fructose (HFD-F) in drinking water (42 g/L), or normal chow diet for 61 days. Food intake was estimated as the difference of weight between the offered and the remnant amount of food at 3-days intervals. The food was provided as pressed pellets and the residual spillage was not considered. After 7 days, HFD-F mice were randomized to receive HFD-F alone or in combination with compound 2 (30 mg/kg/day) by gavage until the end of the experiment. Doses of each agent were chosen according to previously published data. Mice were housed under controlled temperature (22°C) and photoperiods (12:12-h light/dark cycle), allowed unrestricted access to standard mouse chow and tap water. The experimental protocol was approved by the Animal Care and Use Committee of the University of Perugia and by the Italian Minister of Health and Istituto Superiore di Sanità (Italy) and was in agreement with the European guidelines for use of experimental animals (permission n. 583/2017-PR). The general health of the animals was monitored daily by the Veterinarian in the animal facility. At the day of sacrifice, fed mice were deeply anesthetized with a mixture of tiletamine hypochloride and zolazepam hypochloride/xylazine at a dose of 50/5 mg/kg and sacrificed before 12 a.m.
RNA was extracted from eWAT and colon with Direct-zol™ RNA MiniPrep w/Zymo-Spin™ IIC Columns (Zymo Research, Irvine, CA) and it was subjected to reverse transcription with FastGene Scriptase Basic Kit (Nippon Genetics Europe) in a 20 μL reaction volume.
For real time PCR, 50 ng cDNA were amplified in a 20 μL solution containing 200 nM of each primer and 10 μL of SYBR Select Master Mix (Thermo Fisher Scientific, Waltham, MA, United States). All reactions were performed in triplicate, and the thermal cycling conditions were as follows: 10 min at 95°C, followed by 40 cycles of 95°C for 10 s and 60°C for 45 s with QuantStudio™ 3 Real-Time PCR System (Applied Biosystems). The relative mRNA expression was calculated and expressed as 2−(ΔΔCt). Expression of the respective gene was normalized against Gapdh mRNA as an internal control. The following primers for Real-Time PCR were used: mouse-Gapdh: ctgagtatgtcgtggagtctac and gttggtggtgcaggatgcattg; mouse-Srebf1: gatcaaagaggagccagtgc and tagatggtggctgctgagtg; mouse-Fasn: tcaagatgaaggtggcagaggtgct and ttgagcagtgccgggattcgg; mouse-Pgc1α: cttagcactcagaaccatgcag and aatgctcttcgctttattgctc; mouse-Fxr: actggaccacgaagatcagatt and gagcgtactcctcctgagtcat; mouse-adiponectin: tgacagatcagctcgagtgg and cagtgccgtcagttcttgtg; mouse-Tnf-α: ccaccacgctcttctgtcta and agggtctgggccatagaact; mouse-ucp2: ttgcccgtaatgccattgtc and gcaagggaggtcatctgtca; mouse-cd11b gtcagagtctgcctccgtgt and cagggtctaaagccaggtca; mouse-pparγ: gccagtttcgatccgtagaa and aatccttggccctctgagat; mouse-Il-1β: gctgaaagctctccacctca and aggccacaggtattttgtcg; mouse-Gcg: ccaagattttgtgcagtggtt and ccttcagcatgcctctcaaa.

human GPBAR1 = target: T1, human GPBAR1 (Homo sapiens, UniProt Q8TDU6); experiment: GPBAR1 CRE-luciferase reporter transactivation assay in HEK-293T cells; type: cell-based; conditions: HEK293T cells
T1 construct: expressed in transfected cells; host or cells: HEK-293T cells, transient transfection (Fugene HD)
T1 sequence (Q8TDU6 1-330): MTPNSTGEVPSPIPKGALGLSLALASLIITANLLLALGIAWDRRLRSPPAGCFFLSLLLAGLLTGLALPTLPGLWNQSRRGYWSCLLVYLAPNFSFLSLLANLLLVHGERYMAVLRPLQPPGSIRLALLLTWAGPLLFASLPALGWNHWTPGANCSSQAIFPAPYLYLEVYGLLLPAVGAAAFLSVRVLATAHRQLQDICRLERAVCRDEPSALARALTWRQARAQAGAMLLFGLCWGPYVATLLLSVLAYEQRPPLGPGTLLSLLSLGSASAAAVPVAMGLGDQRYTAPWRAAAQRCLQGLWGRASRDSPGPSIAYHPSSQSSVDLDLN
Protocol: GPBAR1. […] At 18 h post stimulations, cellular lysates were assayed for luciferase and Renilla activities using the Dual-Luciferase Reporter assay system (E1980, Promega Madison WI). Luminescence was measured using Glomax 20/20 luminometer (Promega, Madison WI). Luciferase activities were normalized with Renilla activities.
Agonistic activities of compounds on GPBAR1 were compared to TLCA, which was set as 100%.

compound remaining in plasma ([1]; 24 h after administration): approximately 20%
EC50 (human GPBAR1; CRE luciferase): 4.6 ± 1.5 µM
Emax (human GPBAR1; HEK-293T, compound 10 µM relative to TLCA (10 μM) as 100, CRE transactivation, read-out: GPBAR1 Eff (%) maximum efficacy): 82 ± 1.2%
Structure (SMILES): O=C(O)c1cccc(-c2ccc(OCc3ccc4ccccc4n3)cc2)c1 [Compound 2, 4'-(quinolin-2-ylmethoxy)-[1,1′-biphenyl]-3-carboxylic acid]
compound remaining in plasma ([1]; 6 h after administration): considerable percentage of compound 2 is still present
colon expression of Gcg [2]: upregulated
colon expression of Il-1β [2]: strongly reduced
eWAT expression of Cd11b [2]: robustly reduced
eWAT expression of Tnf-α [2]: robustly reduced
eWAT expression of Ucp2 [2]: upregulated
